Experiments:
[1] = test system: HEp-2; assay: Cytotoxic concentration against HEP-2 cells; type: functional, cell-based; conditions: Homo sapiens
[2] = test system: Human alphaherpesvirus 1; assay: Concentration at which 50% of the herpes simplex virus type 1 HSV-1 (F) induced cytopathic effect are inhibited is determined; type: functional; conditions: read-out: ED50 (the source's name)
[3] = test system: Human alphaherpesvirus 2; assay: Antiviral activity against herpes simplex virus type 2 HSV-2 (F) expressed as viral rating (VR); type: functional
[4] = test system: Human alphaherpesvirus 1; assay: Antiviral activity against herpes simplex virus type 1 HSV-1 (F) expressed as viral rating (VR); type: functional
[5] = test system: Human alphaherpesvirus 2; assay: Concentration at which 50% of the herpes simplex virus type 2 […] (F) induced cytopathic effect are inhibited is determined; type: functional; conditions: read-out: ED50 (the source's name)
[6] = test system: Vaccinia virus; assay: Antiviral activity against vaccinia virus in HEP -2 cells; type: functional, Orthopoxvirus vaccinia
[7] = test system: Vaccinia virus; conditions: read-out: ED50
[8] = test system: Vaccinia virus; assay: Inhibition of vaccinia virus induced cytopathic effects in HEP -2 cells; type: functional; conditions: Orthopoxvirus vaccinia, read-out: ED50 (the source's name)

**Q.** What does the source list for `C=C1C(CO)C(O)C(O)C1n1cnc2c(N)ncnc21` (stereo not drawn)?
**A.** Concentration [1]: 50 µM; EC50 [2]: 16 µM; VR [3]: 0.3; VR [4]: 0; EC50 [5]: 5 µM; VR [6]: 0.9; EC50 [7]: 0.55 µM

**Q.** Which results are given for `Nc1ncnc2c1ncn2C1C(O)C(F)C(CO)C1O` (stereo not drawn)?
**A.** Concentration [1]: 225 µM; EC50 [2]: 225 µM; VR [3]: 0; VR [4]: 0; EC50 [5]: 225 µM

**Q.** `Nc1ncnc2c1ncn2[C@H]1[C@H](O)[C@H](O)[C@@H](CO)[C@H]1F` was tested. Which Concentration [1] did it give?
**A.** The Concentration was 320 µM.

**Q.** And the EC50 [2]?
**A.** Its EC50 is 10 µM.

**Q.** What about the VR [3] of the same compound?
**A.** Its VR is 0.4.

**Q.** What about the VR [4] of the same compound?
**A.** The VR was 0.4.

**Q.** What about the EC50 [5] of the same compound?
**A.** Its EC50 is 10 µM.

**Q.** What about the VR [6] of the same compound?
**A.** Its VR is 0.8.

**Q.** What about the EC50 [8] of the same compound?
**A.** The EC50 was 0.5 µM.

**Q.** Which Concentration [1] does the source give for `Nc1ncnc2c1ncn2[C@H]1[C@H](O)[C@H](O)[C@@H](CO)[C@@H]1F` here?
**A.** Its Concentration is greater than 320 µM.

**Q.** What about the EC50 [2] of the same compound?
**A.** The EC50 was 90 µM.

**Q.** What about the VR [3] of the same compound?
**A.** The VR was 0.1.

**Q.** And the VR [4]?
**A.** Its VR is 0.1.

**Q.** What about the EC50 [5] of the same compound?
**A.** The EC50 was 90 µM.

**Q.** What about the VR [6] of the same compound?
**A.** Its VR is 0.4.

**Q.** What about the EC50 [7] of the same compound?
**A.** Its EC50 is 63 µM.

**Q.** With `Nc1nc2c(ncn2COC(CO)CO)c(=O)[nH]1` [GANCICLOVIR] as the compound, how does the Concentration [1] read?
**A.** Its Concentration is greater than 3200 µM.

**Q.** What about the EC50 [2] of the same compound?
**A.** The EC50 was less than 1 µM.

**Q.** And the VR [3]?
**A.** Its VR is 1.6.

**Q.** And the VR [4]?
**A.** Its VR is 1.4.

**Q.** What about the EC50 [5] of the same compound?
**A.** The EC50 was 1 µM.

**Q.** What does the source list for `Nc1ncnc2c1ncn2C1C(O)C(O)C(CO)C1O` (stereo not drawn)?
**A.** Concentration [1]: > 320 µM; EC50 [2]: 100 µM; VR [3]: 0.3; VR [4]: 0.6; EC50 [5]: 100 µM; VR [6]: 0.8; EC50 [7]: 18 µM

**Q.** How did the Concentration [1] turn out when `Nc1ncnc2c1ncn2[C@@H](C=O)O[C@@H](C=O)CO` was run?
**A.** The Concentration was 100 µM.

**Q.** And the VR [3]?
**A.** The VR was 0.

**Q.** And the EC50 [5]?
**A.** Its EC50 is greater than 3200 µM.

**Q.** And the VR [6]?
**A.** The VR was 1.3.

**Q.** And the EC50 [7]?
**A.** Its EC50 is 0.5 µM.

From ChEMBL document CHEMBL1124205, “Synthesis and antiviral evaluation of 6'-substituted aristeromycins: potential mechanism-based inhibitors of S-adenosylhomocysteine hydrolase” (J Med Chem, 1988)
